Laboratory results as given in patent US3992539A, “S-triazolo-[3,4-a]isoquinolines in treating inflammatory disorders” (Mallinckrodt, Inc., priority 1973, dated 1976).
Structures can show the parent of a compound that is named as a salt. Where two headings read alike, the source gives them in different places.

Columns and labels:
gastric secretion = test: anti-secretory activity, pylorus-ligated fasting rats (Shay rat procedure); format: in vivo; conditions: for Anti-Secretory Activity (% Reduction of gastric secretion, ml./100 gm.): 50 mg./kg., fasting rats, 4 hours after pylorus ligation, subcutaneous (footnote), intraperitoneal; for anti-secretory activity rather than ulcerogenic properties (in words): rat, in vivo
Procedure: The anti-secretory properties of certain compounds of the invention was determined using the following procedure. The stomachs of fasting rats were ligated at the pylorus (Shay rat procedure) immediately followed by an intraperitoneal injection of 50 mg./kg. of each compound tested. Four hours later the animals were sacrificed, the stomachs removed and the total volume of fluid was measured.
*% Reduction of gastric secretion (ml./100 gm.) after subcutaneous
administration to fasting rats at 50 mg./kg.

[1] = tested on: carrageenin-induced pedal edema; test: inhibition of carrageenin-induced pedal edema in rats; format: in vivo, rats (male Wistar); conditions: Rattus norvegicus
Procedure: The anti-inflammatory activity of a number of representative compounds of the invention was determined by measuring inhibition of carrageenin-induced pedal edema in rats. The procedure used was a modification of the method of Winter et al., Proc. Soc. Exptl. […] The device used for measurement of the paw volume was an adaptation of the water displacement procedure described by Adamkiewicz et al., Can. J. Biochem. Physiol. […] The compounds were studied for their effectiveness in inhibiting the edema caused by the intraplantar injection of 0.05 ml. of a sterile 1.0% solution of carrageenin. […] The compounds were administered orally one hour prior to the injection of the phlogistic substance (carrageenin) into the left hind paw of the rats. At peak swelling time (3 hours), the volume of edema was calculated by differential paw volumes.

[2] = U.S. Pat. No. 3,354,164; cited from earlier work
[3] = oral, one hour before carrageenin, edema at 3 hours, dose which reduced edema formation by 25% or more in 50% of the animals, read-out: Anti-Inflammatory Activity (ED50)
[4] = po, 3 h, typical ED50 values from the same test, read-out: Anti-Inflammatory Activity (ED50), known antiinflammatory agents
[5] = po, 3 h, read-out: Anti-Inflammatory Activity (ED50), known antiinflammatory agents

SMILES | ED50 [1, 3] | also measured
c1cn2cnnc2c2cc3c(cc12)OCO3 [8,9-Methylenedioxy-s-triazolo-[3,4-a]-isoquinoline] | ~24 mg/kg | Anti-Secretory Activity (% Reduction of gastric secretion, ml./100 gm.) (gastric secretion): 29.5%; anti-secretory activity rather than ulcerogenic properties (in words) (gastric secretion): exhibit anti-secretory activity rather than the ulcerogenic properties
CC(=O)OCC(=O)[C@@]1(O)CC[C@H]2[C@@H]3CCC4=CC(=O)CC[C@]4(C)[C@H]3[C@@H](O)C[C@@]21C [Hydrocortisone Acetate, reference compound] | – | ED50 [1, 4]: 26 mg/kg
COc1ccc2c(ccn3c(C)nnc23)c1 [3-Methyl-8-methoxy-s-triazolo-[3,4-a]-isoquinoline] | 135 mg/kg | –
COC(=O)c1cn2c(C(F)(F)F)nnc2c2ccccc12 [3-Trifluoromethyl-6-carbomethoxy-s-triazolo-[3,4-a]-isoquinoline] | – | Anti-Secretory Activity (% Reduction of gastric secretion, ml./100 gm.) (gastric secretion): 6.4%; anti-secretory activity rather than ulcerogenic properties (in words) (gastric secretion): exhibit anti-secretory activity rather than the ulcerogenic properties
Cl.c1c2c(cc3c1OCO3)-c1nncn1CC2 [5,6-Dihydro-8,9-methylenedioxy-s-triazolo-[3,4-a]-isoquinoline, Hydrochloride] | ~160 mg/kg | –
CCN(CC)CCNc1nnc2c3ccccc3ccn12 [3-(N,N-diethylaminoethylamino)-s-triazolo-[3,4-a]-isoquinoline] | 172 mg/kg | Anti-Secretory Activity (% Reduction of gastric secretion, ml./100 gm.) (gastric secretion): 49%; anti-secretory activity rather than ulcerogenic properties (in words) (gastric secretion): exhibit anti-secretory activity rather than the ulcerogenic properties
C[C@@H]1C[C@H]2[C@@H]3CCC4=CC(=O)C=C[C@]4(C)[C@@]3(F)[C@@H](O)C[C@]2(C)[C@@]1(O)C(=O)CO [Dexamethasone, reference compound] | – | ED50 [1, 5]: 0.18 mg/kg
FC(F)(F)c1nnc2c3cc4c(cc3ccn12)OCO4 [3-Trifluoromethyl-8,9-methylenedioxy-s-triazolo-[3,4-a]-isoquinoline] | 80 mg/kg | –
O=C(O)c1cn2c(C(F)(F)F)nnc2c2ccccc12 [3-Trifluoromethyl-6-carboxy-s-triazolo-[3,4-a]-isoquinoline,Potassium Salt] | > 160 mg/kg | –
CC(=O)Oc1ccccc1C(=O)O [Aspirin, reference compound] | – | ED50 [1, 5]: 224 mg/kg
Cc1nnc2c3cccc(Cl)c3ccn12.Cl [3-methyl-7-chloro-s-triazolo-[3,4-a]-isoquinoline hydrochloride] | > 30 mg/kg | –
CCCCC1C(=O)N(c2ccccc2)N(c2ccccc2)C1=O [Phenylbutazone, reference compound] | – | ED50 [1, 4]: 30 mg/kg
CC(C)Cc1nnc2c3ccccc3ccn12 [3-isobutyl-s-triazolo-[3,4-a]-isoquinoline] | 130 mg/kg | Anti-Secretory Activity (% Reduction of gastric secretion, ml./100 gm.) (gastric secretion): 16%; anti-secretory activity rather than ulcerogenic properties (in words) (gastric secretion): exhibit anti-secretory activity rather than the ulcerogenic properties
Br.Cc1nnc2c3cccc(C#N)c3ccn12 [3-methyl-7-cyano-s-triazolo-[3,4-a]-isoquinoline hydrobromide] | < 100 mg/kg | –
COc1ccc2ccn3c(C(F)(F)F)nnc3c2c1 [3-Trifluoromethyl-9-methoxy-s-triazolo-[3,4-a]-isoquinoline] | 39 mg/kg | –
FC(F)(F)c1nnc2c3cc(Cl)ccc3ccn12 [3-Trifluoromethyl-9-chloro-s-triazolo-[3,4-a]-isoquinoline] | ~160 mg/kg | –
Cc1ccc2ccn3c(C(F)(F)F)nnc3c2c1 [3-Trifluoromethyl-9-methyl-s-triazolo-[3,4-a]-isoquinoline] | ~160 mg/kg | Anti-Secretory Activity (% Reduction of gastric secretion, ml./100 gm.) (gastric secretion): 22%; anti-secretory activity rather than ulcerogenic properties (in words) (gastric secretion): exhibit anti-secretory activity rather than the ulcerogenic properties
COc1ccc2c(c1)-c1nnc(C(F)(F)F)n1CC2.Cl [3-Trifluoromethyl-5,6-dihydro-9-methoxy-s-triazolo-[3,4-a]-isoquinoline Hydrochloride] | 38 mg/kg | –
c1ccc2c(c1)ccn1cnnc21 [s-triazolo-[3,4-a]-isoquinoline] | – | coronary vasodilator activity (in words) [2]: coronary vasodilators
CN1CCN(c2nnc3c4ccccc4c(Cl)cn23)CC1 [3-(N-methylpiperazino)-6-chloro-s-triazolo-[3,4-a]-isoquinoline] | > 60 mg/kg | –
Cl.Cl.Clc1cccc2c1ccn1c(CN3CCOCC3)nnc21 [7-Chloro-3-morpholinomethyl-s-triazolo-[3,4-a]-isoquinoline (Dihydrochloride)] | ~160 mg/kg | –
CC(=O)OCc1nnc2c3ccccc3ccn12 [3-Acetoxymethyl-s-triazolo-[3,4-a]-isoquinoline] | ~100 mg/kg | –
COc1ccc2c(c1)c(CC(=O)O)c(C)n2C(=O)c1ccc(Cl)cc1 [Indomethacin, reference compound] | – | ED50 [1, 5]: 2.4 mg/kg
COc1ccc2ccn3c(C)nnc3c2c1 [3-methyl-9-methoxy-s-triazolo-[3,4-a]-isoquinoline] | 115 mg/kg | –
